Test results: PubChem BioAssay (NCI)
Values joined by “and” are separate entries in the source; they are usually repeats but may differ in a detail not shown here. Equal entries are not always repeated.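 A five-concentration, 48-hour dose response in 96-well plates underlies each endpoint, interpolated linearly between surrounding concentrations. GI50 is the concentration that inhibits growth by half. TGI: total growth inhibition.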

What was measured:
Test in all cases: NCI-60 cell line screen, 48 h
DU-145 prostate = system: DU-145 prostate
SR leukemia = system: SR leukemia
A549 NSCLC = system: A549 NSCLC
PC-3 prostate = system: PC-3 prostate
UACC-257 melanoma = system: UACC-257 melanoma
NCI-H226 lung = system: NCI-H226 lung
MOLT-4 leukemia = system: MOLT-4 leukemia
HCT-15 colon = system: HCT-15 colon
BT-549 breast = system: BT-549 breast
EKVX NSCLC = system: EKVX NSCLC
NCI-H522 lung = system: NCI-H522 lung
MDA-N = system: MDA-N
HS 578T breast = system: HS 578T breast

Row | SMILES | TGI (DU-145 prostate) [µM] | TGI (SR leukemia) [µM] | TGI (A549 NSCLC) [µM] | TGI (PC-3 prostate) [µM] | TGI (UACC-257 melanoma) [µM] | TGI (NCI-H226 lung) [µM] | TGI (MOLT-4 leukemia) [µM] | TGI (HCT-15 colon) [µM] | TGI (BT-549 breast) [µM] | TGI (EKVX NSCLC) [µM] | TGI (NCI-H522 lung) [µM] | TGI (MDA-N) [µM] | TGI (HS 578T breast) [µM] | GI50 (MDA-N)
1 | O=S(=O)(OI(O)CC(F)(F)F)C(F)(F)F | > 100 | > 100 | > 100 | > 100 | > 100 | > 100 | > 100 | > 100 | > 100 | > 100 | > 100 | – | – | –
2 | CC(=O)O[C@@H]1O[Si](C(C)(C)C)(C(C)(C)C)[C@H](C)[C@H]1C | – | > 100 | > 100 | > 100 | > 100 | > 100 | 65.7 | > 100 | > 100 | > 100 | > 100 | > 100 | – | –
3 | O=C(c1ccccc1)c1c(CC(O)c2ccccc2)n(C(=O)c2ccccc2)c2ccccc12 (centres undefined) | – | 72.8 | > 100 | – | > 100 | > 100 | 54.4 | > 100 | – | – | 64.7 | – | – | –
4 | CC(C)CN(CC#N)CC(C)C | > 100 | – | > 100 | > 100 | > 100 | > 100 | > 100 | > 100 | > 100 | > 100 | > 100 | > 100 | > 100 | –
5 | Cc1c2c(ccc3ccccc32)c[n+]2ccccc12 | – | 23.3 | > 100 | – | 26.5 | 35.1 | 27.9 | > 100 | – | – | 18.8 | – | – | –
6 | O=C(/C=C/c1ccc(O)c(O)c1)NCCc1ccc(-c2ccccc2)cc1 | > 100 | – | > 100 | > 100 | > 100 | – | > 100 | > 100 | > 100 | > 100 | > 100 | – | > 100 | –
7 | O=C(O)C12C3CCC(O3)C1(C(=O)O)C1CCC2O1 (centres undefined) | > 100 | – | > 100 | > 100 | > 100 | > 100 | > 100 | > 100 | > 100 | – | > 100 | > 100 | > 100 | 31.3 µM and > 100 µM
8 | COc1cc(C23OCC(Cc4cc5c(cc42)OCO5)C3CO)cc(OC)c1OC (centres undefined) | > 100 | > 100 | > 100 | > 100 | > 100 | > 100 | > 100 | > 100 | > 100 | > 100 | 5.11 | – | > 100 | –
9 | CC(=O)Oc1c2oc3cc(O)c(O)cc3c2c(OC(C)=O)c2oc3cc(O)c(O)cc3c12 | – | > 100 | > 100 | 56.9 | 38.8 | 39.2 | > 100 | 72.3 | 31.1 | 40.1 | 35.8 | > 100 | 36.4 | –
10 | COc1ccc(C[C@H](N)C(=O)N2C[C@@H](CO)C[C@@H](n3cnc4c(N(C)C)ncnc43)C2)cc1 | – | > 100 | > 100 | – | > 100 | – | > 100 | > 100 | – | > 100 | > 100 | – | – | –
11 | CC1=CC(C)(C)Nc2ccc(CSc3ccccc3)cc21 | 71.5 | – | 51.4 | 89.8 | 59.3 | > 100 | – | > 100 | > 100 | 59.9 | 46.5 | 69.9 | > 100 | –
12 | Cc1cc(C)n(C(=O)CSc2nnc(SCC(=O)n3nc(C)cc3C)s2)n1 | > 100 | > 100 | > 100 | > 100 | > 100 | > 100 | > 100 | > 100 | > 100 | > 100 | – | > 100 | 89.3 | –
13 | CCOC(=O)N1[C@@H]2CCC[C@@H]2C(=O)[C@@H]2CCC[C@@H]21 | > 100 | > 100 | > 100 | > 100 | > 100 | > 100 | > 100 | > 100 | > 100 | – | – | > 100 | > 100 | –
14 | O=[N+]([O-])c1cccc2nc3ccccc3c(NCCCN3CCCCC3)c12 | 0.0295 | – | 0.115 | 0.0305 | 0.0446 | 0.0553 | 0.0681 | 0.109 | 0.114 | 0.0401 | 0.0236 | 0.0217 | 0.0966 | –
15 | CN(C)CCCNC(=O)c1cc(NC(=O)c2cc(NC(=O)[C@@H]3C[C@H]3C(=O)Nc3cc(C(=O)Nc4cc(C(=O)NCCCN(C)C)n(C)c4)n(C)c3)cn2C)cn1C | > 100 | > 100 | > 100 | > 100 | > 100 | > 100 | > 100 | – | > 100 | > 100 | > 100 | – | – | –
16 | CCC(=O)NCCc1c2c3c(ccnc3c3ncsc13)-c1ccccc1N2 | > 100 | – | > 53.1 | > 100 | > 94.9 | 16.7 | > 64.5 | > 100 | 57.3 | > 100 | 38.4 | > 100 | 18.7 | –
17 | OC(c1ccccc1)C(F)(F)c1nc2ccccc2o1 (centres undefined) | > 100 | > 100 | – | > 100 | > 100 | > 100 | > 100 | > 100 | > 100 | > 100 | – | – | > 100 | –
18 | NC(N)=NC(N)=Nc1ccccc1 (tested in a mixture with another compound) | > 100 | – | > 100 | > 100 | > 100 | > 100 | – | > 100 | > 100 | > 100 | > 100 | > 100 | > 100 | –
19 | Cn1c(=O)oc2cc(Br)ccc21 | > 100 | > 100 | > 100 | > 100 | > 100 | > 100 | > 100 | > 100 | – | > 100 | > 100 | > 100 | > 100 | –
20 | C[N+](C)([O-])Cc1cc(-c2ccccc2)ccc1O | > 100 | > 100 | > 100 | > 100 | > 100 | > 100 | > 100 | > 100 | > 100 | > 100 | > 100 | – | > 100 | –
